From patent publication US12553889B2, “Small molecules targeting the intrinsically disordered structural ensemble of α-synuclein protect against diverse α-synuclein mediated dysfunctions” (The Regents of the University of California, priority 2019, dated 2026)
“Also recorded” adds a separate entry of the source.

Key:
[1] = molecular target: αSyn (Homo sapiens, UniProt P37840); assay: αSyn split Gaussia luciferase (GLuc) biochemical oligomerization assay; parameters: His tag; made in house; host or cells: E. coli BL21(DE3), pET28b; settings: 24 hours; for impact on αSyn oligomerization (GLuc complementation): 100 μM compound, 12.5 μM of each tagged synuclein; for impact on αSyn oligomerization relative to other active compounds (GLuc): 100 μM
Protocol: A mixture of purified αSyn fused at its C-terminus with either the N-Terminal or the C-terminal half of Gaussia luciferase was incubated and the formation of oligomers monitored by reconstituted luciferase activity (FIG. 9, GLuc). For comparison, fibrillization of αSyn was measured in parallel samples by measuring the fluorescence of the dye Thioflavin T (ThT) as is widely used in the field (FIG. 9, ThT). […] The αSyn-Split Gluc tags have been used to detect αSyn oligomerization in cell models via transfection and expression of DNA encoding αSyn fused to split Gluc tags, but it has not previously been used in a biochemical assay using purified proteins as shown here.
Five to […] each of αSyn-GLuc1 and μM αSyn-GLuc2, (N-terminal or C-terminal fragment of GLuc fused to the C-terminus of αSyn see Example 6) in a buffer consisting of 1 mM MgCl2, 1 mM ADP, 50 mM Na3PO4, 0.02% NaN3 and 1 mM DTT at pH 7.4, were incubated at 37° C. in a thermal cycler (BioRad DNA Engine PTC-200). In experiments in which fibrillization was also measured, samples were incubated in an air incubator with shaking at 1000 rpm. At various time points (typically 0, 6, 12, and 24 hours), Gaussia luciferase activity was quantified using a BioLux Gaussia Luciferase Assay Kit (NEB) according to the manufacturer's instructions and read on a SpectraMax M5 Microplate Reader (Molecular Devices) with 5 minute delay after the addition of substrate and 3 sec integration time reading each well.
• Mix αSyn-GLuc1 and αSyn-GLuc2 at a final concentration of 10 μM each; • Incubate at 37° C. with shaking at 1000 rpm for 120 hours; • Take aliquot at 0/3/6/12/24/48/72/96/120 hour for analysis by Gaussia luciferase activity assay and ThT assay Methods Gaussia Luciferase Assay (According to BioLux Kit Manual): • 1. Thaw reaction buffer and stabilizer; • 2. Make working solution, for each reaction: • Reaction Buffer 50 μL • BioLux Stabilizer 8 μL • Substrate 0.5 μL • 3. Mix well and wait 5 minutes to use the working solution; • 4. Take out 10 μL GLuc sample and put on white 96-well plates; • 5. Add 50 μL working solution, mix well and wait 3.5 minutes; • 6. Read on the plate reader at 480 nm ThT Assay: • 1. Dilute 1 mM Thioflavin T (M.W. 319 Da) stock in PBS to 25 μM final concentration (1:40 dilution) • 2. Pipet 95 μL of the 25 μM Thioflavin T per well of 384 well plate. • 3. Pipet αSyn fibril up and down to mix, add 5 μL to wells with Thioflavin T • 4. For controls, include 5 μL PBS alone. • 5. Incubate at room temperature for 15 min to 1 hour. • 6. Read plate (excitation 440 nm, emission 482 nm). Method Used to Screen 66 HT-CM-SPR Compounds Using αSyn-GLuc:
Reaction mix is added into 96-well PCR plate containing:
Reaction: • αSyn-GLuc1 12.5 μM • αSyn-GLuc2 12.5 μM • Compound 0/12.5/25/50/75/100 μM in DMSO 0.2% • Negative: DMSO 0.2%: • 37 degree (PCR), no shaking

[2] = molecular target: T1, αSyn (Homo sapiens, UniProt P37840, Q99C); assay: αSyn FRET (Cy3/Cy5) oligomerization assay; type: biochemical
T1 construct: made in house; host or cells: E. coli BL21(DE3), pET28b
Protocol: For the FRET oligomerization assay, 10 μM each of αSyn-Q-C(position number)Cy3 (donor) and αSyn-Q(position number)C-Cy5 (acceptor) in PBS (pH 7.4) were dispensed into black/clear bottom 384-well plates (Greiner) using a Mantis liquid handler (Formulatrix). The plate was sealed with AbsorbMax film (Sigma-Aldrich) and incubated at 37° C. The FRET between donor and acceptor was measured on a SpectraMax M5 Microplate Reader (Molecular Devices). An excitation wavelength of 525 nm for αSyn-Cy3 (donor), and emission wavelengths of 570 nm and 670 nm for αSyn-Cy3 (donor) and αSyn-Cy5 (acceptor) respectively were used. The plate reader PTM sensitivity is set to medium and assays executed without mixing. The signals are read at 10 minute intervals for 99 hours at 37° C. Efficiency of FRET was calculated as follows: EFRET=IAcceptor/IDonor, in which IAcceptor is acceptor emission intensity, IDonor is donor emission intensity.
• 1. Single point mutation (x to Cys) is introduced to αSyn. • 2. Cy3 and Cy5 are used as FRET probes Brief Procedure: Label αSyn Mutant with Cy3/Cy5 Dyes: • Incubate purified αSyn Q99C with 1 mM TCEP at 4° C. for 3 hours to reduce Cys; • Dissolve Cy3-maleimide or Cy5-maleimide (GE Healthcare) in DMSO; • Add 10× molar excess of dye to αSyn Q99C; • Incubate at 4° C. overnight; • Remove excess dye by HiTrap Desalting column (GE Healthcare); FRET Assay • Mix the following: • αSyn-Q99C-Cy3 5 uM • αSyn-Q99C-Cy5 5 uM
Measure the fluorescence from Cy3 and Cy5 at 37° C. for 99 hours on a plate reader (SpectraMax M5, Molecular Devices).

| SMILES | activity in FRET αSyn oligomerization assay [2] | impact relative to 576755 in FRET αSyn oligomerization assay [2] | impact on αSyn oligomerization (GLuc complementation) [1] | impact on αSyn oligomerization relative to other active compounds (GLuc) [1] |
| --- | --- | --- | --- | --- |
| Cc1c(-c2csc(NC(C(N)=O)C3CCNCC3)n2)sc2ccccc12 (stereo not shown) [Compound 573437, 2-((4-(3-methylbenzo[b]thiophen-2-yl)thiazol-2-yl)amino)-2-(piperidin-4-yl)acetamide] | block αSyn oligomerization |  | impair αSyn oligomerization |  |
| CNC(=O)c1cc(O)ccc1N [Compound 576755, 2-amino-5-hydroxy-N-methylbenzamide] | block αSyn oligomerization |  | impair αSyn oligomerization; also recorded: demonstrated inhibition of αSyn oligomerization |  |
| CNC(=O)c1cc(O)ccc1NC [Compound 581858, 2-methylamino-5-hydroxy-N-methylbenzamide] | also active |  | demonstrated inhibition of αSyn oligomerization | more impact on αSyn oligomerization than 576755 and 581823 |
| CNC(=O)CN(C(=O)Cc1noc2ccccc12)C(C)c1ccc(Cl)cc1 (stereo not shown) [Compound 582032, 2-(benzo[d]isoxazol-3-yl)-N-(1-(4-chlorophenyl)ethyl)-N-(2-(methylamino)-2-oxoethyl)acetamide] | block αSyn oligomerization |  | impair αSyn oligomerization |  |

Second part, led by results:

| activity in FRET αSyn oligomerization assay [2] | impact relative to 576755 in FRET αSyn oligomerization assay [2] | SMILES | impact on αSyn oligomerization (GLuc complementation) [1] | impact on αSyn oligomerization relative to other active compounds (GLuc) [1] |
| --- | --- | --- | --- | --- |
| also active | less impact than 576755 | CNC(=O)c1cc(O)ccc1N(C)C [Compound 581823, 2-dimethylamino-5-hydroxy-N-methylbenzamide] | demonstrated inhibition of αSyn oligomerization | less impact than 576755 |
| also active |  | CNC(=O)c1cc(O)ccc1O [Compound 583854, 2,5-dihydroxy-N-methylbenzamide] | demonstrated inhibition of αSyn oligomerization | more impact on αSyn oligomerization than 576755 and 581823 |
